The test concerns the target NLRP3 (Homo sapiens, UniProt Q96P20). The test can be described thus: THP-1 cells pyroptosis assay. Format: cell-based. Set-up: Seed THP-1 cells (25,000 cells/well) containing 1.0 μg/ml LPS; host or cells: THP-1 cells, LPS-primed, nigericin-stimulated. Conditions: 1.0 μg/ml LPS, nigericin 5 μM, resazurin readout. From the text: It is well established that the activation of NLRP3 leads to cell pyroptosis and this feature plays an important part in the manifestation of clinical disease (Yan-gang Liu et al., Cell Death & Disease, 2017, 8(2), e2579; Alexander Wree et al., Hepatology, 2014, 59(3), 898-910; Alex Baldwin et al., Journal of Medicinal Chemistry, 2016, 59(5), 1691-1710; Ema Ozaki et al., Journal of Inflammation Research, 2015, 8, 15-27; Zhen Xie & Gang Zhao, Neuroimmunology Neuroinflammation, 2014, 1(2), 60-65; Mattia Cocco et al., Journal of Medicinal Chemistry, 2014, 57(24), 10366-10382; T. Satoh et al., Cell Death & Disease, 2013, 4, e644). Therefore, it is anticipated that inhibitors of NLRP3 will block pyroptosis, as well as the release of pro-inflammatory cytokines (e.g. IL-1β) from the cell.
THP-1 cells (ATCC #TIB-202) were grown in RPMI containing L-glutamine (Gibco #11835) supplemented with 1 mM sodium pyruvate (Sigma #S8636) and penicillin (100 units/ml)/streptomycin (0.1 mg/ml) (Sigma #P4333) in 10% Fetal Bovine Serum (FBS) (Sigma #F0804). The cells were routinely passaged and grown to confluency (˜10^6 cells/ml). On the day of the experiment, THP-1 cells were harvested and resuspended into RPMI medium (without FBS). The cells were then counted and viability (>90%) checked by Trypan blue (Sigma #T8154). Appropriate dilutions were made to give a concentration of 625,000 cells/ml. To this diluted cell solution was added LPS (Sigma #L4524) to give a 1 μg/ml Final Assay Concentration (FAC). 40 μl of the final preparation was aliquoted into each well of a 96-well plate. The plate thus prepared was used for compound screening.
The following method step-by-step assay was followed for compound screening. • 1. Seed THP-1 cells (25,000 cells/well) containing 1.0 μg/ml LPS in 40 μl of RPMI medium (without FBS) in 96-well, black walled, clear bottom cell culture plates coated with poly-D-lysine (VWR #734-0317) • 2. Add […] compound (8 points half-log dilution, with 10 μM top dose) or vehicle (DMSO 0.1% FAC) to the appropriate wells • 3. Incubate for 3 hrs at 37° C. in 5% CO2 • 4. Add 5 μl nigericin (Sigma #N7143) (FAC 5 μM) to all wells • 5. Incubate for 1 hr at 37° C. and 5% CO2 • 6. At the end of the incubation period, spin plates at 300×g for 3 mins and remove supernatant • 7. Then add 50 μl of resazurin (Sigma #R7017) (FAC 100 μM resazurin in RPMI medium without FBS) and incubate plates for a further 1-2 hrs at 37° C. and 5% CO2 • 8. Plates were read in an Envision reader at Ex 560 nm and Em 590 nm • 9. IC50 data is fitted to a non-linear regression equation (log inhibitor vs response-variable slope 4-parameters)
A general note: The colour change of resazurin is a common sign of viable cells or microbes.

Chain of NLRP3 (Q96P20 whole entry): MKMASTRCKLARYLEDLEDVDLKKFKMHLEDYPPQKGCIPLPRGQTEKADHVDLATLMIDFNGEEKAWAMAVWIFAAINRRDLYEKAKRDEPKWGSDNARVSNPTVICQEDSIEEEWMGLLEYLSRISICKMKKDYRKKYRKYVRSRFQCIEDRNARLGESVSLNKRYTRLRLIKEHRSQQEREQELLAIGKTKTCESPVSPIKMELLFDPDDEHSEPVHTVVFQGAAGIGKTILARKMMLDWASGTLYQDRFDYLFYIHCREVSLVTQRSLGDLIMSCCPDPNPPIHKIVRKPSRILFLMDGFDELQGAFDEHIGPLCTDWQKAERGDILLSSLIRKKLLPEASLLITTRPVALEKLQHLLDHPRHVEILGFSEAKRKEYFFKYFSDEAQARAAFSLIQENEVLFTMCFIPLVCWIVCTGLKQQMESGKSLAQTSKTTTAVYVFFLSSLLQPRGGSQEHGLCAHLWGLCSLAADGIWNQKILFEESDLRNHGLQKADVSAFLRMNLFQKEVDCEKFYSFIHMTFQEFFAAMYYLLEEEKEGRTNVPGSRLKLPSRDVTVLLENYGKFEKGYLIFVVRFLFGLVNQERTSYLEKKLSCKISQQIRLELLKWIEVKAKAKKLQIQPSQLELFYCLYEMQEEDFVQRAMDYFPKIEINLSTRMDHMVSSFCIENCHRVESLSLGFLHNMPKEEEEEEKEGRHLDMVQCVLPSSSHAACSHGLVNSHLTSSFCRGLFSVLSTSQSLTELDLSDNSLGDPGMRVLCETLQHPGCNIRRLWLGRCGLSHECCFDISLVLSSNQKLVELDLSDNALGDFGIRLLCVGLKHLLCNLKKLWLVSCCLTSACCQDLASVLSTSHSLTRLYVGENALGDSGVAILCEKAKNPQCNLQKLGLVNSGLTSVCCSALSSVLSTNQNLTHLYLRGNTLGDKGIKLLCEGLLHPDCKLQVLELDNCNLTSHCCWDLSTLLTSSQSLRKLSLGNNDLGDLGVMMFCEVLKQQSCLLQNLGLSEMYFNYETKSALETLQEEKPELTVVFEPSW

As to `CC(=O)N1CC(n2ccc(S(=O)(=O)NC(=O)Nc3c4c(cc5c3CCC5)CCC4)n2)C1` [Example 3, 1-(1-Acetylazetidin-3-yl)-N-((1,2,3,5,6,7-hexahydro-s-indacen-4-yl)carbamoyl)-1H-pyrazole-3-sulfonamide], the half-inhibitory concentration (IC50) (commonly the point on the concentration scale where inhibition reaches its midpoint) was in the range of 640 to 2560 nM.
As to `CN1CCn2nc(S(=O)(=O)NC(=O)Nc3c4c(cc5c3CCC5)CCC4)cc2C1=O` [Example 4, N-((1,2,3,5,6,7-Hexahydro-s-indacen-4-yl)carbamoyl)-5-methyl-4-oxo-4,5,6,7-tetrahydropyrazolo[1,5-a]pyrazine-2-sulfonamide], the IC50 fell in the range of 2560 to 10000 nM.
Under `CC(=O)N1CCC(n2ccc(S(=O)(=O)NC(=O)Nc3c4c(cc5c3CCC5)CCC4)n2)CC1` [Example 5, 1-(1-Acetylpiperidin-4-yl)-N-((1,2,3,5,6,7-hexahydro-s-indacen-4-yl)carbamoyl)-1H-pyrazole-3-sulfonamide] stands 2560 to 10000 nM; under `CN(C)CCCN(C)C(=O)c1cc(S(=O)(=O)NC(=O)Nc2c3c(cc4c2CCC4)CCC3)nn1C` [Example 6, N-(3-(Dimethylamino)propyl)-3-(N-((1,2,3,5,6,7-hexahydro-s-indacen-4-yl)carbamoyl)sulfamoyl)-N,1-dimethyl-1H-pyrazole-5-carboxamide], 2560 to 10000 nM.
Take `CC(C)c1cccc(C(C)C)c1NC(=O)NS(=O)(=O)c1cc(C(=O)N(C)C2CCC2)n(C)n1` [Example 8, N-Cyclobutyl-3-(N-((2,6-diisopropylphenyl)carbamoyl)sulfamoyl)-N,1-dimethyl-1H-pyrazole-5-carboxamide]: the IC50 was 640 to 2560 nM.
Under `CN(CCC#N)C(=O)c1cc(S(=O)(=O)NC(=O)Nc2c3c(cc4c2CCC4)CCC3)nn1C` [Example 9, N-(2-Cyanoethyl)-3-(N-((1,2,3,5,6,7-hexahydro-s-indacen-4-yl)carbamoyl)sulfamoyl)-N,1-dimethyl-1H-pyrazole-5-carboxamide] stands 160 to 640 nM; under `CN(C)CCN(C)C(=O)c1cc(S(=O)(=O)NC(=O)Nc2c3c(cc4c2CCC4)CCC3)nn1C` [Example 10, N-(2-(Dimethylamino)ethyl)-3-(N-((1,2,3,5,6,7-hexahydro-s-indacen-4-yl)carbamoyl)sulfamoyl)-N,1-dimethyl-1H-pyrazole-5-carboxamide], 640 to 2560 nM.
As to `CN(C(=O)c1cc(S(=O)(=O)NC(=O)Nc2c3c(cc4c2CCC4)CCC3)nn1C)C1CCCC1` [Example 11, N-Cyclopentyl-3-(N-((1,2,3,5,6,7-hexahydro-s-indacen-4-yl)carbamoyl)sulfamoyl)-N,1-dimethyl-1H-pyrazole-5-carboxamide], the IC50 lay in the range of 640 to 2560 nM.
`CC(=O)N(C)CCN(C)C(=O)c1cc(S(=O)(=O)NC(=O)Nc2c3c(cc4c2CCC4)CCC3)nn1C` [Example 12, 3-(N-((1,2,3,5,6,7-Hexahydro-s-indacen-4-yl)carbamoyl)sulfamoyl)-N,1-dimethyl-N-(2-(N-methylacetamido)ethyl)-1H-pyrazole-5-carboxamide] displayed an IC50 of 2560 to 10000 nM.
In the case of `CC(=O)NCCN(C)C(=O)c1cc(S(=O)(=O)NC(=O)Nc2c3c(cc4c2CCC4)CCC3)nn1C` [Example 13, N-(2-Acetamidoethyl)-3-(N-((1,2,3,5,6,7-hexahydro-s-indacen-4-yl)carbamoyl)sulfamoyl)-N,1-dimethyl-1H-pyrazole-5-carboxamide] it was 2560 to 10000 nM.
Under `CN(C(=O)c1cc(S(=O)(=O)NC(=O)Nc2c3c(cc4c2CCC4)CCC3)nn1C)C1CCOCC1` [Example 14, 3-(N-((1,2,3,5,6,7-Hexahydro-s-indacen-4-yl)carbamoyl)sulfamoyl)-N,1-dimethyl-N-(tetrahydro-2H-pyran-4-yl)-1H-pyrazole-5-carboxamide] stands 2560 to 10000 nM; under `CN(C(=O)c1cc(S(=O)(=O)NC(=O)Nc2c3c(cc4c2CCC4)CCC3)nn1C)C1COC1` [Example 17, 3-(N-((1,2,3,5,6,7-Hexahydro-s-indacen-4-yl)carbamoyl)sulfamoyl)-N,1-dimethyl-N-(oxetan-3-yl)-1H-pyrazole-5-carboxamide], 640 to 2560 nM; under `CN(CC(O)CO)C(=O)c1cc(S(=O)(=O)NC(=O)Nc2c3c(cc4c2CCC4)CCC3)nn1C` (stereo not drawn) [Example 19, N-(2,3-Dihydroxypropyl)-3-(N-((1,2,3,5,6,7-hexahydro-s-indacen-4-yl)carbamoyl)sulfamoyl)-N,1-dimethyl-1H-pyrazole-5-carboxamide], 640 to 2560 nM.
Under `CC(C)c1cccc(C(C)C)c1NC(=O)NS(=O)(=O)c1cc(C(=O)N2CCOCC2)n(C)n1` [Example 21, N-((2,6-Diisopropylphenyl)carbamoyl)-1-methyl-5-(morpholine-4-carbonyl)-1H-pyrazole-3-sulfonamide] stands 640 to 2560 nM; under `COCCN(C)C(=O)c1cc(S(=O)(=O)NC(=O)Nc2c(C(C)C)cccc2C(C)C)nn1C` [Example 22, 3-(N-((2,6-Diisopropylphenyl)carbamoyl)sulfamoyl)-N-(2-methoxyethyl)-N,1-dimethyl-1H-pyrazole-5-carboxamide], 2560 to 10000 nM; under `COCCN(CCOC)C(=O)c1cc(S(=O)(=O)NC(=O)Nc2c(C(C)C)cccc2C(C)C)nn1C` [Example 23, 3-(N-((2,6-Diisopropylphenyl)carbamoyl)sulfamoyl)-N,N-bis(2-methoxyethyl)-1-methyl-1H-pyrazole-5-carboxamide], 2560 to 10000 nM.
In the case of `Cn1nc(S(=O)(=O)NC(=O)Nc2c3c(cc4c2CCC4)CCC3)cc1C(=O)N1CCC(O)CC1` [Example 24, N-((1,2,3,5,6,7-Hexahydro-s-indacen-4-yl)carbamoyl)-5-(4-hydroxypiperidine-1-carbonyl)-1-methyl-1H-pyrazole-3-sulfonamide], the IC50 lay in the range of 2560 to 10000 nM.
In the case of `COC1CCN(C(=O)c2cc(S(=O)(=O)NC(=O)Nc3c4c(cc5c3CCC5)CCC4)nn2C)C1` (stereo not drawn) [Example 25, N-((1,2,3,5,6,7-Hexahydro-s-indacen-4-yl)carbamoyl)-5-(3-methoxypyrrolidine-1-carbonyl)-1-methyl-1H-pyrazole-3-sulfonamide] it was 2560 to 10000 nM.
Compound `Cn1nc(S(=O)(=O)NC(=O)Nc2c3c(cc4c2CCC4)CCC3)cc1C(=O)N1CCOCC1` [Example 28, N-((1,2,3,5,6,7-Hexahydro-s-indacen-4-yl)carbamoyl)-1-methyl-5-(morpholine-4-carbonyl)-1H-pyrazole-3-sulfonamide] came in with an IC50 of 640 to 2560 nM.
For the compound `CC(C)c1cc(F)cc(C(C)C)c1NC(=O)NS(=O)(=O)c1cc(C(=O)N2CCC2)n(C(C)C)n1` [Example 30, 5-(Azetidine-1-carbonyl)-N-((4-fluoro-2,6-diisopropylphenyl)carbamoyl)-1-isopropyl-1H-pyrazole-3-sulfonamide], the IC50 lay within 160 to 640 nM.
Take `CC(C)c1ccc(-c2cncnc2)cc1NC(=O)NS(=O)(=O)c1cc(C(=O)N(C)C)n(C)n1` [Example 34, 3-(N-((2-Isopropyl-5-(pyrimidin-5-yl)phenyl)carbamoyl)sulfamoyl)-N,N,1-trimethyl-1H-pyrazole-5-carboxamide]: the IC50 fell in the range of 640 to 2560 nM.
In the case of `CC(C)c1ccc(-c2cnn(C)c2)cc1NC(=O)NS(=O)(=O)c1cc(C(=O)N(C)C)n(C)n1` [Example 36, 3-(N-((2-Isopropyl-5-(1-methyl-1H-pyrazol-4-yl)phenyl)carbamoyl)sulfamoyl)-N,N,1-trimethyl-1H-pyrazole-5-carboxamide] it was 640 to 2560 nM.
Under `CC(C)NC(=O)c1cc(S(=O)(=O)NC(=O)Nc2c(C(C)C)cccc2C(C)C)nn1C` [Example 38, 3-(N-((2,6-Diisopropylphenyl)carbamoyl)sulfamoyl)-N-isopropyl-1-methyl-1H-pyrazole-5-carboxamide] stands 2560 to 10000 nM.
`CC(C)c1cccc(C(C)C)c1NC(=O)NS(=O)(=O)c1cc(C(=O)N(C)CC#N)n(C)n1` [Example 40, N-(Cyanomethyl)-3-(N-((2,6-diisopropylphenyl)carbamoyl)sulfamoyl)-N,1-dimethyl-1H-pyrazole-5-carboxamide] returned an IC50 of 2560 to 10000 nM.

(Values after patent publication US20210122739A1, “NOVEL SULFONAMIDE CARBOXAMIDE COMPOUNDS” (Inflazome Limited, priority 2017, published 2021).)
